Values joined by “and” are separate entries in the source; they are usually repeats but may differ in a detail not shown here. Equal values may be shown once. “Also recorded” adds a separate entry of the source. Read-outs that look alike come from different tables or passages of the source.
How the values were obtained:
17X-PTDH [1] = assay: Phosphite dissociation constant for 17X-PTDH by the method of Klinman and Matthews; assay type: biochemical, Pseudomonas stutzeri WM88; settings: calculated from ^D(V/K), ^DV and K m,Phosphite
R301A = assay: Phosphite Kd and Km for R301A; assay type: biochemical, Pseudomonas stutzeri WM88
17X-PTDH-R301A [2] = target: T1, 17X-PTDH-R301A (Stutzerimonas stutzeri (Pseudomonas stutzeri), UniProt O69054, D13E/E130K/I150F/M26I/Q132R/Q137R/R301A/V71I, form not given); assay type: biochemical, Pseudomonas stutzeri WM88; settings: for Rescue of activity of the R301A mutant: exogenous reagent, unsuccessful ones tested at 20–100 mM depending on solubility; for k rescue/ K m, phosphite: R301A with saturating rescue reagent; for EC50: pH 7.25, 25°C, read-out: K R (concentration of rescue reagent at which half-maximal rate was observed); for K m, phosphite (apparent): rescue agent and NAD+ saturating (>10 K R)
H292A mutant of wt-PTDH = H292A mutant of wt-PTDH (Stutzerimonas stutzeri, UniProt O69054, H292A); assay type: biochemical, Pseudomonas stutzeri WM88; settings: 10–100 mM reagent
H292G mutant of wt-PTDH = H292G mutant of wt-PTDH (Stutzerimonas stutzeri, UniProt O69054, H292G); assay type: biochemical, Pseudomonas stutzeri WM88; settings: 10–100 mM reagent
17X-PTDH-R301A [3] = target: T1, 17X-PTDH-R301A; assay type: biochemical, Pseudomonas stutzeri WM88; settings: saturating rescue reagent (>20 K R), deuterated vs protiated phosphite, pH 7.25, 25°C
[4] = parameters: method as in earlier work; settings: cited from earlier work
17X-PTDH-R301A [5] = target: T1, 17X-PTDH-R301A; assay type: biochemical, Pseudomonas stutzeri WM88
[6] = Expected proportion of aminoguanidine in unprotonated and protonated states at various pH values; assay type: physicochemical
17X-PTDH [7] = assay: Sulfite inhibition of 17X-PTDH; assay type: biochemical, Pseudomonas stutzeri WM88; settings: competitive vs phosphite, 4 mM NAD+, pH 7.25, read-out: K is
Experimental: Reactions were performed in 100 mM MOPS (pH 7.25) at saturating concentrations of 4 mM NAD^+. Sodium sulfite was adjusted to the desired concentration by serial dilution from a 0.5 M stock solution. Sulfite concentration was adjusted to 0, 50, 100, 150, 200 or 300 µM for R301A or 0, 0.5, 1, 5, 10 or 20 µM for 17X-PTDH. An experiment was also performed with 17X-PTDH-R301A and saturating concentrations of 300 mM aminoguanidine, with sulfite concentrations of 0, 100, 200, 300, 400 or 500 µM. The reaction was initiated by addition of PTDH (0.1 µM final concentration, 5 µM for R301A). At each concentration of inhibitor, phosphite concentration was varied. The data was analyzed in GraFit 7.0 [28] using the equation for competitive inhibition (Equation 3) to fit all of the data, where I is the inhibitor concentration and K is the dissociation constant for a competitive inhibitor [29]. [drawing 5] (3)

17X-PTDH-R301A [8] = target: T1, 17X-PTDH-R301A; assay type: biochemical, Pseudomonas stutzeri WM88; settings: pH 7.25, read-out: K is
[9] = wt enzyme, pH 7.25; ref (1) Relyea et al., 2005; cited from earlier work
[10] = wt enzyme, pH 7.25, cited from earlier work
[11] = R301A, k cat,apparent at saturating rescue reagent, 100 mM MOPS pH 7.25, 25°C, 4 mM NAD+
[12] = 0–2.0 mM aminoguanidine, 1 M phosphite, 4 mM NAD+, first experiment
[13] = repeat with a different batch of enzyme and reagents

T1 sequence (O69054 1-329 D13E/E130K/I150F/M26I/Q132R/Q137R/R301A/V71I): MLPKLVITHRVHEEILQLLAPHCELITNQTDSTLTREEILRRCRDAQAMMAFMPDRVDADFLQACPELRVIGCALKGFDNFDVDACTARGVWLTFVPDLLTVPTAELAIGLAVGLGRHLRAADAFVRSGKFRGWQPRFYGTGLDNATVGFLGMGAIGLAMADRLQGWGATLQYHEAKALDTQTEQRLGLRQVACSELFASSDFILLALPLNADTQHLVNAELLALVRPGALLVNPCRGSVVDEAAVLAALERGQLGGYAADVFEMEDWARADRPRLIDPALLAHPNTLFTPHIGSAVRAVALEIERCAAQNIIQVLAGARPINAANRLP

phosphite
Kd (17X-PTDH [1]): 0.023 ± 0.006 mM
K m of phosphite (R301A; R301A, pH 8.0, no rescue agent): 300 ± 35 mM
Kd (R301A; calculated from ^D(V/K), ^DV and K m,Phosphite): 13 ± 2 mM

NC(=O)NO [hydroxyurea]
Rescue of activity of the R301A mutant (17X-PTDH-R301A [2]): not observed

NC(N)=S [thiourea]
Rescue of activity of the R301A mutant (17X-PTDH-R301A [2]): not observed

c1nc[nH]n1 [1,2,4-triazole]
Rescue of activity of H292A mutant (H292A mutant of wt-PTDH): no activity; also recorded: failed to result in any activity
Rescue of activity of H292G mutant (H292G mutant of wt-PTDH): no activity; also recorded: failed to result in any activity

CCN [ethylamine]
Rescue of activity of the R301A mutant (17X-PTDH-R301A [2]): not observed

N=C(N)N [guanidine]
k rescue/ K m, phosphite (17X-PTDH-R301A [2]; pH 7.25): 41 (4) M^−1 s^−1
k rescue (17X-PTDH-R301A [2]; [11]): 1.2 (0.1) s^−1
[drawing 6] (Brønsted plot ordinate; uses K R corrected for free base concentration at pH 7.25) (17X-PTDH-R301A [2]; R301A, pH 7.25): 8.1 (0.1)
EC50 (17X-PTDH-R301A [2]; R301A): 18 mM
K m, phosphite (apparent) (17X-PTDH-R301A [2]; R301A, pH 7.25): 30 (3) mM
Rescue of activity of the R301A mutant (17X-PTDH-R301A [2]): markedly improved
^D k cat (17X-PTDH-R301A [3]): 1.8 (0.1)
^D k cat/K m (17X-PTDH-R301A [3]): 2.3 (0.1)
pK a (conjugate acid of rescue reagent) [4]: 13.6

N=C(N)NN [aminoguanidine]
k rescue/ K m, phosphite (17X-PTDH-R301A [2]; pH 7.25): 180 (10) M^−1 s^−1
k rescue (17X-PTDH-R301A [2]; [11]): 1.4 (0.1) s^−1
[drawing 6] (Brønsted plot ordinate; uses K R corrected for free base concentration at pH 7.25) (17X-PTDH-R301A [2]; R301A, pH 7.25): 5.3 (0.1)
EC50 (17X-PTDH-R301A [2]; R301A): 32 mM
K m, phosphite (apparent) (17X-PTDH-R301A [2]; R301A, pH 7.25): 7.4 (0.5) mM
Activity with saturating rescue agent relative to wild-type activity (17X-PTDH-R301A [2]; R301A, saturating substrate and rescue agent): about 40%
Rescue of activity of the R301A mutant (17X-PTDH-R301A [2]): markedly improved
^D k cat (17X-PTDH-R301A [3]): 2.1 (0.1)
^D k cat/K m (17X-PTDH-R301A [3]): 3.1 (0.3)
Ratio of slopes of k cat,apparent vs rescue agent concentration, pH 7.5 : pH 7.0 (17X-PTDH-R301A [5]; [12]): 1.2±0.1
Ratio of slopes of k cat,apparent vs rescue agent concentration, pH 8.0 : pH 7.0 (17X-PTDH-R301A [5]; [12]): 3.7±0.3
Ratio of slopes, pH 7.5 : pH 7.0 (17X-PTDH-R301A [5]; [13]): 1.6±0.1
Ratio of slopes, pH 8.0 : pH 7.0 (17X-PTDH-R301A [5]; [13]): 3.0±0.1
Ratio of concentrations of reagent (pH 7.5 : pH 7), protonated [6]: 1.0
Ratio of concentrations of reagent (pH 7.5 : pH 7), unprotonated [6]: 3.2
Ratio of concentrations of reagent (pH 8 : pH 7), protonated [6]: 1.0
Ratio of concentrations of reagent (pH 8 : pH 7), unprotonated [6]: 10.0
Protonated (RNH3^+) proportion ([6]; pH 7.0): 99.99%
Unprotonated (RNH2) proportion ([6]; pH 7.0): 0.01%
Protonated (RNH3^+) proportion ([6]; pH 7.5): 99.97%
Unprotonated (RNH2) proportion ([6]; pH 7.5): 0.03%
Protonated (RNH3^+) proportion ([6]; pH 8.0): 99.90%
Unprotonated (RNH2) proportion ([6]; pH 8.0): 0.10%
pK a (conjugate acid of rescue reagent) [4]: 11.0

CN=C(N)N [methylguanidine]
k rescue/ K m, phosphite (17X-PTDH-R301A [2]; pH 7.25): 5.2 (1.1) M^−1 s^−1
k rescue (17X-PTDH-R301A [2]; [11]): 0.68 (0.04) s^−1
[drawing 6] (Brønsted plot ordinate; uses K R corrected for free base concentration at pH 7.25) (17X-PTDH-R301A [2]; R301A, pH 7.25): 7.2 (0.1)
EC50 (17X-PTDH-R301A [2]; R301A): 55 mM
K m, phosphite (apparent) (17X-PTDH-R301A [2]; R301A, pH 7.25): 130 (30) mM
Rescue of activity of the R301A mutant (17X-PTDH-R301A [2]): markedly improved
^D k cat (17X-PTDH-R301A [3]): 1.4 (0.1)
^D k cat/K m (17X-PTDH-R301A [3]): 1.6 (0.5)
pK a (conjugate acid of rescue reagent) [4]: 13.4

NC(N)=O [urea]
Rescue of activity of the R301A mutant (17X-PTDH-R301A [2]): not observed

CN [methylamine]
Rescue of activity of the R301A mutant (17X-PTDH-R301A [2]): not observed
Rescue of activity of H292A mutant (H292A mutant of wt-PTDH): no activity
Rescue of activity of H292G mutant (H292G mutant of wt-PTDH): no activity

O=S(O)O [sulfite]
Ki (17X-PTDH [7]): 0.00031 mM
Ki (17X-PTDH-R301A [8]; R301A + saturating 300 mM aminoguanidine): 0.078 mM
Ki (17X-PTDH-R301A [8]; R301A, competitive vs phosphite, 4 mM NAD+): 0.13 mM

N=C(N)NC(N)=O [N-guanylurea]
[drawing 6] (Brønsted plot ordinate; uses K R corrected for free base concentration at pH 7.25) (17X-PTDH-R301A [2]; pH 7.25): −2.9 (0.2)
k rescue (17X-PTDH-R301A [2]; pH 7.25): 0.42 (0.07) s^−1
pK a (conjugate acid of rescue reagent) [4]: 3.9

CCNC(=N)N [ethylguanidine]
k rescue (17X-PTDH-R301A [2]; [11]): 0.52 (0.13) s^−1
[drawing 6] (Brønsted plot ordinate; uses K R corrected for free base concentration at pH 7.25) (17X-PTDH-R301A [2]; R301A, pH 7.25): 6.1 (0.2)
Rescue of activity of the R301A mutant (17X-PTDH-R301A [2]): markedly improved
pK a (conjugate acid of rescue reagent) [4]: 13.3

c1c[nH]cn1 [imidazole]
Rescue of activity of H292A mutant (H292A mutant of wt-PTDH): no activity; also recorded: failed to result in any activity
Rescue of activity of H292G mutant (H292G mutant of wt-PTDH): no activity; also recorded: failed to result in any activity

CC(=N)N [acetamidine]
k rescue/ K m, phosphite (17X-PTDH-R301A [2]; pH 7.25): 6.7 (1.1) M^−1 s^−1
k rescue (17X-PTDH-R301A [2]; [11]): 0.86 (0.08) s^−1
[drawing 6] (Brønsted plot ordinate; uses K R corrected for free base concentration at pH 7.25) (17X-PTDH-R301A [2]; R301A, pH 7.25): 6.3 (0.1)
EC50 (17X-PTDH-R301A [2]; R301A): 63 mM
K m, phosphite (apparent) (17X-PTDH-R301A [2]; R301A, pH 7.25): 130 (20) mM
Rescue of activity of the R301A mutant (17X-PTDH-R301A [2]): markedly improved
^D k cat (17X-PTDH-R301A [3]): 1.5 (0.1)
^D k cat/K m (17X-PTDH-R301A [3]): 1.8 (0.6)
pK a (conjugate acid of rescue reagent) [4]: 12.5

CCCCN [butylamine, n-butylamine]
Rescue of activity of the R301A mutant (17X-PTDH-R301A [2]): not observed

B1: wt enzyme: wild-type phosphite dehydrogenase from Pseudomonas stutzeri WM88 (protein, UniProt O69054 1-336, looked up)
Phosphonate dehydrogenase: MLPKLVITHRVHDEILQLLAPHCELMTNQTDSTLTREEILRRCRDAQAMMAFMPDRVDADFLQACPELRVVGCALKGFDNFDVDACTARGVWLTFVPDLLTVPTAELAIGLAVGLGRHLRAADAFVRSGEFQGWQPQFYGTGLDNATVGILGMGAIGLAMADRLQGWGATLQYHEAKALDTQTEQRLGLRQVACSELFASSDFILLALPLNADTQHLVNAELLALVRPGALLVNPCRGSVVDEAAVLAALERGQLGGYAADVFEMEDWARADRPRLIDPALLAHPNTLFTPHIGSAVRAVRLEIERCAAQNIIQVLAGARPINAANRLPKAEPAAC
substrate KIE on kcat [9]: 2.1
solvent isotope effect (SIE) on k cat [10]: 1.55 and 1.55±0.07
observed combined SIE and substrate KIE on kcat ([10]; ref (1) Relyea et al., 2005): 2.48
